Patent publication US20230257372A1 (CHONG KUN DANG PHARMACEUTICAL CORP., priority 2020, published 2023)

Experiments:
human recombinant HDAC1 = biological target: T1, human recombinant HDAC1 (Homo sapiens, UniProt Q13547); experiment: HDAC1 enzyme activity inhibition (HDAC Fluorimetric Drug Discovery Kit); type: biochemical; conditions: human recombinant HDAC1; IC50 calculated with GraphPad Prism; read-out: HDAC1
T1 construct: purchased Enzo Life Science, Inc. BML-SE456
Summary of the method: (§1)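 Fluorimetric deacetylase read-out. 5-fold compound dilutions; […] enzyme, 10 μM substrate; 30° C, 60 min; developer 30 min.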

human recombinant HDAC6 = biological target: T2, human recombinant HDAC6 (Homo sapiens, UniProt Q9UBN7); experiment: HDAC6 enzyme activity inhibition (HDAC Fluorimetric Drug Discovery Kit); type: biochemical; conditions: for HDAC6 selectivity (fold): HDAC1 IC50 / HDAC6 IC50; for IC50: human recombinant HDAC6, IC50 calculated with GraphPad Prism
T2 construct: purchased Calbiochem Inc. 382180
T2 sequence (Q9UBN7 1-1215): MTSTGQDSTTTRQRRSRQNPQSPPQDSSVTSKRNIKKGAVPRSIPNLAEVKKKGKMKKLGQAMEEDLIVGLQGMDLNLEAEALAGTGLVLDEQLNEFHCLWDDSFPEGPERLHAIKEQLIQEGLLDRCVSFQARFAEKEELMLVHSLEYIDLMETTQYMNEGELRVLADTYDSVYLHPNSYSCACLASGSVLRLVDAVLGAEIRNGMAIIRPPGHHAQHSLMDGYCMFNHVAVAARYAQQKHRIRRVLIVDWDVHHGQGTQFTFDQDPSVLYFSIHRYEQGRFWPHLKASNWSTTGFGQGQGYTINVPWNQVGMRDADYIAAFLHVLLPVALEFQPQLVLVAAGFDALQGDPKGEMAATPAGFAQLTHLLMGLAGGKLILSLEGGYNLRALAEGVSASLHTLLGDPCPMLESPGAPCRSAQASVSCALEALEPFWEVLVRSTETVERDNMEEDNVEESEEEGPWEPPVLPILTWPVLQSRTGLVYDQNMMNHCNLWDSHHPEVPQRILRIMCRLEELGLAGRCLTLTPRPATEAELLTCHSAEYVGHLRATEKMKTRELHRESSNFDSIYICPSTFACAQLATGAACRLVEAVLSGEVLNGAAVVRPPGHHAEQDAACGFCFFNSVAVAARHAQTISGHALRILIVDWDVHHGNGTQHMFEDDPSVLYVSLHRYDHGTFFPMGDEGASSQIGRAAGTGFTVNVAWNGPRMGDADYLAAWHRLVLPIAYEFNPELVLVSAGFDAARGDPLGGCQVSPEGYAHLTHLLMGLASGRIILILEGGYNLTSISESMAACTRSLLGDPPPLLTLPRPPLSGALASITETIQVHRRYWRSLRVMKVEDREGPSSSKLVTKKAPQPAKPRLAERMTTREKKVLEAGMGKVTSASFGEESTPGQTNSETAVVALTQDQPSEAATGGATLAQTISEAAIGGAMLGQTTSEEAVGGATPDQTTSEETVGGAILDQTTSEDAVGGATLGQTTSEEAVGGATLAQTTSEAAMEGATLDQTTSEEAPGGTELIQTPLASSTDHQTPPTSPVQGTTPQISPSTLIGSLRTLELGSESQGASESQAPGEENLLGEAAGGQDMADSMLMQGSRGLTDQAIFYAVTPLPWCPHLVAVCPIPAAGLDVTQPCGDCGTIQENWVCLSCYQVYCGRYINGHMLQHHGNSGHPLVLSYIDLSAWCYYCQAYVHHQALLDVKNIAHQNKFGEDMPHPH
Summary of the method: as §1

[1] = test system: hippocampal neurons from a Sprague-Dawley (SD) rat fetus; experiment: Effect of HDAC6-specific inhibitor on axonal transport of mitochondria in amyloid-beta treated neurons; type: cell-based; conditions: transport velocity of mitochondria in neuronal axon after normalization; vehicle = 100%, amyloid beta treatment group = 0%; compound treatment for three hours
Summary of the method: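 Rat E17-18 hippocampal neurons exposed to amyloid-beta fragments […]; after 24 h (day 8 in vitro) compound added for 3 h, mitochondria stained with MitoTracker Red CMXRos. Confocal imaging every 1 s for 1 min gave per-mitochondrion velocity, normalized vehicle = 100%, amyloid-beta = 0%.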

T1 sequence (Q13547 whole entry): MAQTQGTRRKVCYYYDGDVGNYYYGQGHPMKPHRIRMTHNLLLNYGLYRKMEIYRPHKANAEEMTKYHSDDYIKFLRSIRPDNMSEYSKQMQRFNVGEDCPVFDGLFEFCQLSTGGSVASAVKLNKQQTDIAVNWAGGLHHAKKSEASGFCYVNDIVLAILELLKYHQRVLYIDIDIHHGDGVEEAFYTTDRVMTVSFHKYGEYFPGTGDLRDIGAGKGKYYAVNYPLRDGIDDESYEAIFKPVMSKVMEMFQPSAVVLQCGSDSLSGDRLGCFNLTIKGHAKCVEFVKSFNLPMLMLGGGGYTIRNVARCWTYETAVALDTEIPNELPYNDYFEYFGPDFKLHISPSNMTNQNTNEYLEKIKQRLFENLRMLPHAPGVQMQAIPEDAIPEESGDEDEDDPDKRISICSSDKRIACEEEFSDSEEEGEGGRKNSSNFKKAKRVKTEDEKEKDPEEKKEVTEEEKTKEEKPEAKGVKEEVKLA

| Structure (SMILES) | IC50 (human recombinant HDAC1) [nM] | HDAC6 selectivity (fold) (human recombinant HDAC6) | IC50 (human recombinant HDAC6) [nM] | Velocity distribution (%) [1] |
| --- | --- | --- | --- | --- |
| CCN1CCc2cc(-c3cn(Cc4ccc(-c5nnc(C(F)F)o5)cn4)nn3)ccc2C1 [Compound 4052, 2-(difluoromethyl)-5-(6-((4-(2-ethyl-1,2,3,4-tetrahydroisoquinolin-6-yl)-1H-1,2,3-triazol-1-yl)methyl)pyridin-3-yl)-1,3,4-oxadiazole] | > 50000 | 1128 | 44.3 | ** (**, 50%˜100%) |
| FC(F)c1nnc(-c2ccc(Cn3cc(-c4ccc5c(c4)CCN(C4COC4)C5)nn3)nc2)o1 [Compound 4055, 2-(difluoromethyl)-5-(6-((4-(2-(oxetan-3-yl)-1,2,3,4-tetrahydroisoquinolin-6-yl)-1H-1,2,3-triazol-1-yl)methyl)pyridin-3-yl)-1,3,4-oxadiazole] | > 50000 | 868 | 57.6 | * (*, 0%˜50%) |
| FC(F)c1nnc(-c2ccc(Cn3cc(-c4ccc5[nH]ccc5c4)nn3)nc2)o1 [Compound 4072, 2-(6-((4-(1H-indol-5-yl)-1H-1,2,3-triazol-1-yl)methyl)pyridin-3-yl)-5-(difluoromethyl)-1,3,4-oxadiazole] | > 50000 | 4854 | 10.3 | ** (**, 50%˜100%) |
| FC(F)c1nnc(-c2ccc(Cn3cc(-c4ccc5occc5c4)nn3)nc2)o1 [Compound 4073, 2-(6-((4-(benzofuran-5-yl)-1H-1,2,3-triazol-1-yl)methyl)pyridin-3-yl)-5-(difluoromethyl)-1,3,4-oxadiazole] | > 50000 | 822 | 60.8 | ** (**, 50%˜100%) |
| FC(F)c1nnc(-c2ccc(Cn3cc(-c4cccc(-n5ccnc5)c4)nn3)nc2)o1 [Compound 4075, 2-(6-((4-(3-(1H-imidazol-1-yl)phenyl)-1H-1,2,3-triazol-1-yl)methyl)pyridin-3-yl)-5-(difluoromethyl)-1,3,4-oxadiazole] | > 50000 | 3048 | 16.4 | *** (***, >100%) |
| FC(F)c1nnc(-c2ccc(Cn3cc(-c4ccc5cc[nH]c5c4)nn3)cc2)o1 [Compound 4076, 2-(4-((4-(1H-indol-6-yl)-1H-1,2,3-triazol-1-yl)methyl)phenyl)-5-(difluoromethyl)-1,3,4-oxadiazole] | > 50000 | 739 | 67.6 | *** (***, >100%) |
| Fc1cc(-c2nnc(C(F)F)o2)ccc1Cn1cc(-c2cccc3[nH]ccc23)nn1 [Compound 4079, 2-(4-((4-(1H-indol-4-yl)-1H-1,2,3-triazol-1-yl)methyl)-3-fluorophenyl)-5-(difluoromethyl)-1,3,4-oxadiazole] | > 50000 | 1992 | 25.1 | ** (**, 50%˜100%) |
| FC(F)c1nnc(-c2ccc(Cn3cc(-c4ccc5[nH]ccc5c4)nn3)cc2)o1 [Compound 4080, 2-(4-((4-(1H-indol-5-yl)-1H-1,2,3-triazol-1-yl)methyl)phenyl)-5-(difluoromethyl)-1,3,4-oxadiazole] | > 50000 | 2145 | 23.3 | *** (***, >100%) |
| CN1CCN(c2ccc(-c3cn(Cc4ccc(-c5nnc(C(F)F)o5)cn4)nn3)cc2)CC1 [Compound 4107, 2-(difluoromethyl)-5-(6-((4-(4-(4-methylpiperazin-1-yl)phenyl)-1H-1,2,3-triazol-1-yl)methyl)pyridin-3-yl)-1,3,4-oxadiazole] | > 50000 | 1256 | 39.8 | ** (**, 50%˜100%) |
| FC(F)c1nnc(-c2ccc(Cn3cc(-c4ccc5c(CN6CCCC6)c[nH]c5c4)nn3)cc2)o1 [Compound 4108, 2-(difluoromethyl)-5-(4-((4-(3-(pyrrolidin-1-ylmethyl)-1H-indol-6-yl)-1H-1,2,3-triazol-1-yl)methyl)phenyl)-1,3,4-oxadiazole] | > 50000 | 5882 | 8.5 | *** (***, >100%) |
| Fc1cc(-c2nnc(C(F)F)o2)ccc1Cn1cc(-c2ccc3c(CN4CCCC4)c[nH]c3c2)nn1 [Compound 4109, 2-(difluoromethyl)-5-(3-fluoro-4-((4-(3-(pyrrolidin-1-ylmethyl)-1H-indol-6-yl)-1H-1,2,3-triazol-1-yl)methyl)phenyl)-1,3,4-oxadiazole] | > 50000 | 3649 | 13.7 | *** (***, >100%) |
| CC1CCN(Cc2c[nH]c3cc(-c4cn(Cc5ccc(-c6nnc(C(F)F)o6)cc5F)nn4)ccc23)CC1 [Compound 4110, 2-(difluoromethyl)-5-(3-fluoro-4-((4-(3-((4-methylpiperidin-1-yl)methyl)-1H-indol-6-yl)-1H-1,2,3-triazol-1-yl)methyl)phenyl)-1,3,4-oxadiazole] | > 50000 | 3030 | 16.5 | ** (**, 50%˜100%) |

Further lines, with some results ahead:

| IC50 (human recombinant HDAC1) [nM] | HDAC6 selectivity (fold) (human recombinant HDAC6) | IC50 (human recombinant HDAC6) [nM] | Structure (SMILES) | Velocity distribution (%) [1] |
| --- | --- | --- | --- | --- |
| > 50000 | 1773 | 28.2 | CCC(=O)N1CCN(c2cccc(-c3cn(Cc4ccc(-c5nnc(C(F)F)o5)cn4)nn3)c2)CC1 [Compound 3991] | ** (**, 50%˜100%) |
| > 50000 | 2369 | 21.1 | CN1CCC(c2cccc(-c3cn(Cc4ccc(-c5nnc(C(F)F)o5)cn4)nn3)c2)CC1 [Compound 4010, 2-(difluoromethyl)-5-(6-((4-(3-(1-methylpiperidin-4-yl)phenyl)-1H-1,2,3-triazol-1-yl)methyl)pyridin-3-yl)-1,3,4-oxadiazole] | *** (***, >100%) |
| > 50000 | 2358 | 21.2 | CC(C)N1CCC(c2cccc(-c3cn(Cc4ccc(-c5nnc(C(F)F)o5)cn4)nn3)c2)CC1 [Compound 4012, 2-(difluoromethyl)-5-(6-((4-(3-(1-isopropylpiperidin-4-yl)phenyl)-1H-1,2,3-triazol-1-yl)methyl)pyridin-3-yl)-1,3,4-oxadiazole] | *** (***, >100%) |
| > 50000 | 2183 | 22.9 | FC(F)c1nnc(-c2ccc(Cn3cc(-c4cccc(C5CCN(C6COC6)CC5)c4)nn3)nc2)o1 [Compound 4013, 2-(difluoromethyl)-5-(6-((4-(3-(1-(oxetan-3-yl)piperidin-4-yl)phenyl)-1H-1,2,3-triazol-1-yl)methyl)pyridin-3-yl)-1,3,4-oxadiazole] | ** (**, 50%˜100%) |
| > 50000 | 1298 | 38.5 | CC(C)N1CCN(c2cccc(-c3cn(Cc4ccc(-c5nnc(C(F)F)o5)cn4)nn3)c2)CC1 [Compound 4070, 2-(difluoromethyl)-5-(6-((4-(3-(4-isopropylpiperazin-1-yl)phenyl)-1H-1,2,3-triazol-1-yl)methyl)pyridin-3-yl)-1,3,4-oxadiazole] | ** (**, 50%˜100%) |
| > 50000 | 4587 | 10.9 | CC1CCN(Cc2c[nH]c3cc(-c4cn(Cc5ccc(-c6nnc(C(F)F)o6)cn5)nn4)ccc23)CC1 [Compound 4111, 2-(difluoromethyl)-5-(6-((4-(3-((4-methylpiperidin-1-yl)methyl)-1H-indol-6-yl)-1H-1,2,3-triazol-1-yl)methyl)pyridin-3-yl)-1,3,4-oxadiazole] | ** (**, 50%˜100%) |
